The NIST ThermoML archive (doi:10.1016/j.jct.2016.03.030)

Assay: molar heat capacity at constant pressure; xn = mol fraction of the nth substance listed
Conditions: 100 kPa, Liquid, Small sample (50 mg) DSC

CCCCC[N+]1(C)CCOCC1.[Br-] [4-methyl-4-pentylmorpholinium bromide] + O
molar heat capacity at constant pressure [J/K/mol]
Conditions	298.15 K	303.15 K	308.15 K	313.15 K	318.15 K	323.15 K	328.15 K	333.15 K	338.15 K	343.15 K
x1 = 0.0316	94.11	94.16	94.44	94.72	94.98	95.31	95.54	95.76	95.94	96.1
x1 = 0.0695	105.99	106.33	106.88	107.4	107.91	108.43	108.87	109.28	109.73	110.14
x1 = 0.1522	133.02	133.71	134.95	135.91	136.93	138.01	138.86	139.78	140.69	141.55
x1 = 0.2054	153.72	154.58	156.03	157.22	158.41	159.6	160.73	161.92	163.04	164.03
x1 = 0.219	149.69	150.59	151.97	153.29	154.54	155.79	156.96	158	159.04	160.08
x1 = 0.2438	159.53	160.5	161.93	163.21	164.56	165.91	167.26	168.39	169.59	170.72
x1 = 0.2754	165.68	166.67	168.15	169.64	170.96	172.28	173.51	174.92	176.15	177.39

CCC[N+]1(C)CCOCC1.[Br-] [4-methyl-4-propylmorpholinium bromide] + O
molar heat capacity at constant pressure [J/K/mol]
Conditions	298.15 K	303.15 K	308.15 K	313.15 K	318.15 K	323.15 K	328.15 K	333.15 K	338.15 K	343.15 K
x1 = 0.0336	82.58	82.9	83.23	83.53	83.78	84.05	84.28	84.5	84.72	84.95
x1 = 0.0618	89.62	89.92	90.54	91.03	91.49	92.05	92.45	92.91	93.25	93.65
x1 = 0.1298	107.63	108.21	109.1	110	110.81	111.61	112.42	113.09	113.81	114.43
x1 = 0.2036	125.06	125.72	126.8	127.7	128.6	129.5	130.16	130.58	130.94	131.12
x1 = 0.2742	132.6	133.19	134.31	135.28	136.1	137.14	137.89	138.56	139.23	140.05
x1 = 0.3025	146.99	147.64	148.84	149.81	150.85	151.81	152.7	153.5	154.39	155.03
